Here are results for 37 test systems from the supplement of paper PMC11962398.

Compound in assay [1]: T1, C[C@H]1CNCCN1c1nccc(-c2noc3c2CCC[C@@]32CCCc3sc(N)c(C#N)c32)n1 [BI-2493]
The following applies: 5 days. On the procedure: (§1)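 PRISM pooled barcoded cancer cell line viability screen (Broad Institute) with BI-2493 at 8 doses in threefold dilutions from 0.00457 to 10 µmol/L, 5-day treatment; curves fitted per cell line. IC50 is undefined (placeholder) for resistant lines. AUC is capped at 1, and sensitivity is reported as 1 − AUC.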

Compound in assay [2]: T1, BI-2493
Description: 1 - AUC of viability dose-response curve (sensitivity) (fraction); higher = more sensitive. Conditions: 5 days. On the procedure:
as §1

Take “MEG01_HAEMATOPOIETIC_AND_LYMPHOID_TISSUE”: in the assay with BI-2493 [1], the “IC50 of cell viability” value was found to be 9.19 µM. Moreover, in the assay with BI-2493 [2], the “1 - AUC of viability dose-response curve” value was found to be 0.0154.

As for MEL285_UVEA, in the assay with BI-2493 [1], the “IC50 of cell viability” value is 6.23 µM. The “1 - AUC of viability dose-response curve” value with BI-2493 [2] is 0.145.

Regarding MEL290_UVEA, the “IC50 of cell viability” value in the assay with BI-2493 [1] is greater than 10 µM. For the same test system, the “1 - AUC of viability dose-response curve” value with BI-2493 [2] is 0.105.

As for MELHO_SKIN, in the assay with BI-2493 [1], the “IC50 of cell viability” value was determined as 7.85 µM. Besides, the “1 - AUC of viability dose-response curve” value with BI-2493 [2] is 0.131.

Turning to MESSA_SOFT_TISSUE, the “IC50 of cell viability” value with BI-2493 [1] is 3.73 µM. Besides, the “1 - AUC of viability dose-response curve” value with BI-2493 [2] worked out at 0.17.

In the case of MEWO_SKIN, the “IC50 of cell viability” value with BI-2493 [1] turned out to be 9.6 µM. For the same test system, the “1 - AUC of viability dose-response curve” value with BI-2493 [2] was determined as 0.0577.

Consider MFE280_ENDOMETRIUM, for which the “IC50 of cell viability” value with BI-2493 [1] was greater than 10 µM. The “1 - AUC of viability dose-response curve” value in the assay with BI-2493 [2] is 0.18.

With MFE296_ENDOMETRIUM, in the assay with BI-2493 [1], the “IC50 of cell viability” value amounted to 9.19 µM. The “1 - AUC of viability dose-response curve” value in the assay with BI-2493 [2] came to 0.136.

Consider MFE319_ENDOMETRIUM, for which the “IC50 of cell viability” value in the assay with BI-2493 [1] turned out to be 9.02 µM. For the same test system, in the assay with BI-2493 [2], the “1 - AUC of viability dose-response curve” value was 0.0267.

Regarding MG63_BONE, in the assay with BI-2493 [1], the “IC50 of cell viability” value came out at 9.09 µM. Further, the “1 - AUC of viability dose-response curve” value in the assay with BI-2493 [2] is 0.0826.

For the test system MHHES1_BONE, the “IC50 of cell viability” value in the assay with BI-2493 [1] was determined as 8.05 µM. In addition, the “1 - AUC of viability dose-response curve” value with BI-2493 [2] came out at 0.114.

For MHHNB11_AUTONOMIC_GANGLIA, the “IC50 of cell viability” value with BI-2493 [1] is 4.36 µM. Further, the “1 - AUC of viability dose-response curve” value with BI-2493 [2] was 0.177.

As to MKN1_STOMACH, in the assay with BI-2493 [1], the “IC50 of cell viability” value stood at 1.18 µM. In addition, the “1 - AUC of viability dose-response curve” value with BI-2493 [2] was determined as 0.305.

Turning to MKN7_STOMACH, the “IC50 of cell viability” value with BI-2493 [1] is 8.55 µM. Moreover, the “1 - AUC of viability dose-response curve” value in the assay with BI-2493 [2] worked out at 0.161.

Turning to MKN45_STOMACH, in the assay with BI-2493 [1], the “IC50 of cell viability” value is 0.5 µM. The “1 - AUC of viability dose-response curve” value with BI-2493 [2] is 0.401.

On to MKN74_STOMACH, for which the “IC50 of cell viability” value with BI-2493 [1] was 7.22 µM. Besides, the “1 - AUC of viability dose-response curve” value in the assay with BI-2493 [2] is 0.117.

For MM1S_HAEMATOPOIETIC_AND_LYMPHOID_TISSUE, the “IC50 of cell viability” value with BI-2493 [1] is 0.558 µM. Further, the “1 - AUC of viability dose-response curve” value with BI-2493 [2] was 0.413.

Take MM127_SKIN: the “IC50 of cell viability” value in the assay with BI-2493 [1] was found to be 7.34 µM. Moreover, in the assay with BI-2493 [2], the “1 - AUC of viability dose-response curve” value is 0.0501.

On to MMNK1_BILIARY_TRACT, for which, in the assay with BI-2493 [1], the “IC50 of cell viability” value was 4.9 µM. Besides, the “1 - AUC of viability dose-response curve” value with BI-2493 [2] is 0.0714.

Regarding “MOLM14_HAEMATOPOIETIC_AND_LYMPHOID_TISSUE”, the “IC50 of cell viability” value with BI-2493 [1] was found to be 2.79 µM. The “1 - AUC of viability dose-response curve” value with BI-2493 [2] stood at 0.145.

In the case of “MOLP2_HAEMATOPOIETIC_AND_LYMPHOID_TISSUE”, the “IC50 of cell viability” value in the assay with BI-2493 [1] came out at 6.56 µM. Besides, the “1 - AUC of viability dose-response curve” value in the assay with BI-2493 [2] was determined as 0.0525.

Regarding “MOLT3_HAEMATOPOIETIC_AND_LYMPHOID_TISSUE”, in the assay with BI-2493 [1], the “IC50 of cell viability” value was 6.51 µM. The “1 - AUC of viability dose-response curve” value with BI-2493 [2] was determined as 0.0789.

For the test system “MOLT13_HAEMATOPOIETIC_AND_LYMPHOID_TISSUE”, the “IC50 of cell viability” value with BI-2493 [1] was 5.21 µM. In the assay with BI-2493 [2], the “1 - AUC of viability dose-response curve” value came to 0.13.

For the test system “MOLT16_HAEMATOPOIETIC_AND_LYMPHOID_TISSUE”, the “IC50 of cell viability” value with BI-2493 [1] amounted to 1.81 µM. Further, the “1 - AUC of viability dose-response curve” value with BI-2493 [2] is 0.297.

Take “MONOMAC1_HAEMATOPOIETIC_AND_LYMPHOID_TISSUE”: the “IC50 of cell viability” value with BI-2493 [1] was 7.33 µM. In addition, the “1 - AUC of viability dose-response curve” value with BI-2493 [2] worked out at 0.17.

Consider “MONOMAC6_HAEMATOPOIETIC_AND_LYMPHOID_TISSUE”, for which the “IC50 of cell viability” value with BI-2493 [1] was 7.72 µM. In addition, the “1 - AUC of viability dose-response curve” value with BI-2493 [2] turned out to be 0.149.

Consider MON_SOFT_TISSUE, for which, in the assay with BI-2493 [1], the “IC50 of cell viability” value turned out to be 2.57 µM. Moreover, in the assay with BI-2493 [2], the “1 - AUC of viability dose-response curve” value stood at 0.163.

As to MP41_UVEA, the “IC50 of cell viability” value with BI-2493 [1] was determined as 5.17 µM. For the same test system, the “1 - AUC of viability dose-response curve” value with BI-2493 [2] worked out at 0.119.

With MPP89_PLEURA, the “IC50 of cell viability” value with BI-2493 [1] is 9.24 µM. Also, the “1 - AUC of viability dose-response curve” value with BI-2493 [2] came to 0.0335.

Regarding MS751_CERVIX, the “IC50 of cell viability” value with BI-2493 [1] was 8.93 µM. Further, in the assay with BI-2493 [2], the “1 - AUC of viability dose-response curve” value worked out at 0.029.

As to MSTO211H_PLEURA, the “IC50 of cell viability” value with BI-2493 [1] was determined as 3.67 µM. Moreover, the “1 - AUC of viability dose-response curve” value with BI-2493 [2] was 0.136.

As for “NALM6_HAEMATOPOIETIC_AND_LYMPHOID_TISSUE”, the “IC50 of cell viability” value with BI-2493 [1] was determined as 6.5 µM. The “1 - AUC of viability dose-response curve” value with BI-2493 [2] was determined as 0.0753.

Regarding NB1_AUTONOMIC_GANGLIA, the “IC50 of cell viability” value with BI-2493 [1] came out at 3.3 µM. For the same test system, the “1 - AUC of viability dose-response curve” value with BI-2493 [2] was 0.201.

On to NB4_HAEMATOPOIETIC_AND_LYMPHOID_TISSUE, for which the “IC50 of cell viability” value with BI-2493 [1] worked out at 2.53 µM. In the assay with BI-2493 [2], the “1 - AUC of viability dose-response curve” value turned out to be 0.175.

Consider NCCIT_TESTIS, for which the “IC50 of cell viability” value in the assay with BI-2493 [1] was found to be 0.878 µM. Further, the “1 - AUC of viability dose-response curve” value in the assay with BI-2493 [2] came to 0.192.

For the test system NCIH23_LUNG, the “IC50 of cell viability” value with BI-2493 [1] was determined as 3 µM. The “1 - AUC of viability dose-response curve” value in the assay with BI-2493 [2] came to 0.199.

As for NCIH28_PLEURA, the “IC50 of cell viability” value with BI-2493 [1] is 5.43 µM. Also, the “1 - AUC of viability dose-response curve” value in the assay with BI-2493 [2] amounted to 0.0967.
